Counter-ions that a name gives are not always drawn. Like-named read-outs stand apart in the source and are kept apart here.
Key:
[1] = molecular target: PI3Kγ (p110γ) Recombinant Human Protein (Homo sapiens (Human), UniProt P48736); assay: PI3K-γ scintillation proximity assay; type: biochemical; conditions: 20 μM PIP2, 2 μM ATP, 13 nM PI3Kγ, 120 min, room temperature
Source text: Example B. PI3K-γ Scintillation Proximity Assay
[γ-^33P]ATP (10 mCi/mL) and Wheat Germ Agglutinin (WGA) YSi SPA Scintillation Beads was purchased from PerkinElmer (Waltham, Mass.). Lipid kinase substrate, D-myo-Phosphatidylinositol 4,5-bisphosphate (PtdIns(4,5)P2)D (+)-sn-1,2-di-O-octanoylglyceryl, 3-O-phospho linked (PIP2), CAS 204858-53-7, was purchased from Echelon Biosciences (Salt Lake City, Utah). PI3Kγ (p110γ) Recombinant Human Protein was purchased from Life technology (Grand Island, N.Y.). ATP, MgCl2, DTT, EDTA, MOPS and CHAPS were purchased from SigmaAldrich (St. Louis, Mo.).
(§1) The kinase reaction was conducted in polystyrene 384-well Greiner Bio-one white plate from Thermo Fisher Scientific in a final volume of 25 μL. Inhibitors were first diluted serially in DMSO and added to the plate wells before the addition of other reaction components. The final concentration of DMSO in the assay was 2%. The PI3Kγ assay was carried out at room temperature in 20 mM MOPS, pH 6.7, 10 mM MgCl2, 5 mM DTT and CHAPS 0.03%. Reactions were initiated by the addition of ATP, the final reaction mixture consisted of 20 μM PIP2, 2 μM ATP, 0.5 μCi [γ-^33P] ATP, 13 nM PI3Kγ. Reactions were incubated for 120 min and terminated by the addition of 40 μL SPA beads suspended in quench buffer: 163 mM potassium phosphate pH 7.8, 20% glycerol, 25 mM EDTA. The final concentration of SPA beads is 1.0 mg/mL. After the plate sealing, plates were shaken overnight at room temperature and centrifuged at 1500 rpm for 10 min, the radioactivity of the product was determined by scintillation counting on Topcount (Perkin-Elmer). IC50 determination was performed by fitting the curve of percent of the solvent control activity versus the log of the inhibitor concentration using the GraphPad Prism 6.0 software.

[2] = molecular target: PI3Kδ (p110δ/p85α) Recombinant Human Protein (Homo sapiens (Human), UniProt O00329); assay: PI3Kδ scintillation proximity assay; type: biochemical; conditions: 20 μM PIP2, 2 μM ATP, 3.4 nM PI3Kδ, 120 min, room temperature; read-out: PI3Kδ IC50
Chain of PI3Kδ (p110δ/p85α) Recombinant Human Protein (O00329 whole entry): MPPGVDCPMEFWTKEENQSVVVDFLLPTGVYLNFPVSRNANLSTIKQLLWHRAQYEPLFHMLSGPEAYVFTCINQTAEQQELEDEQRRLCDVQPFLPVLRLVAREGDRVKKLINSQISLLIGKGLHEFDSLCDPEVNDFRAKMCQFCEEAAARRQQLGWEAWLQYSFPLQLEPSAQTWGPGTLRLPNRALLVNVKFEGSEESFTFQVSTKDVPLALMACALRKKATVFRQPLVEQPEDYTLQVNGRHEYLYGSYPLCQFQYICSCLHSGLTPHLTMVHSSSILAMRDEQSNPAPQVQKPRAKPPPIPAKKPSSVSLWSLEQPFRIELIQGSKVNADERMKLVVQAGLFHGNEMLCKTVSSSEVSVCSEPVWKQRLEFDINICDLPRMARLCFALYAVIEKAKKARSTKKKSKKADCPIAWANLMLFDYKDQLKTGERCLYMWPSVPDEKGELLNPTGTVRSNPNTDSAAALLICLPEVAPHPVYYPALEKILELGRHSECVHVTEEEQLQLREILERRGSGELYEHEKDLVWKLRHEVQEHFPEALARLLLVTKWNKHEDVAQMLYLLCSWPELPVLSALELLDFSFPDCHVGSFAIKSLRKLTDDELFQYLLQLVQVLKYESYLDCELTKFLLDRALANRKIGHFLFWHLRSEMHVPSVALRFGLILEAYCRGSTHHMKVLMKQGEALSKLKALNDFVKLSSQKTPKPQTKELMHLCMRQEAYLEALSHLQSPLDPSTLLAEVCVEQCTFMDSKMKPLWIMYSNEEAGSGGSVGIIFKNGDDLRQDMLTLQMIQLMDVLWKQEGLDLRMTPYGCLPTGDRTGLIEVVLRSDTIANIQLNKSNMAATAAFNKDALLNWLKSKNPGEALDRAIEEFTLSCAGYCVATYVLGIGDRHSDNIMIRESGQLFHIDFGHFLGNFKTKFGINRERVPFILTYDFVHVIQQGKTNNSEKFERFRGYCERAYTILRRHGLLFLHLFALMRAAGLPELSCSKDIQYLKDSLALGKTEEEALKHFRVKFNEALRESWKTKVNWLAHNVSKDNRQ
Chain of PI3Kδ (p110δ/p85α) Recombinant Human Protein (P27986 whole entry partner): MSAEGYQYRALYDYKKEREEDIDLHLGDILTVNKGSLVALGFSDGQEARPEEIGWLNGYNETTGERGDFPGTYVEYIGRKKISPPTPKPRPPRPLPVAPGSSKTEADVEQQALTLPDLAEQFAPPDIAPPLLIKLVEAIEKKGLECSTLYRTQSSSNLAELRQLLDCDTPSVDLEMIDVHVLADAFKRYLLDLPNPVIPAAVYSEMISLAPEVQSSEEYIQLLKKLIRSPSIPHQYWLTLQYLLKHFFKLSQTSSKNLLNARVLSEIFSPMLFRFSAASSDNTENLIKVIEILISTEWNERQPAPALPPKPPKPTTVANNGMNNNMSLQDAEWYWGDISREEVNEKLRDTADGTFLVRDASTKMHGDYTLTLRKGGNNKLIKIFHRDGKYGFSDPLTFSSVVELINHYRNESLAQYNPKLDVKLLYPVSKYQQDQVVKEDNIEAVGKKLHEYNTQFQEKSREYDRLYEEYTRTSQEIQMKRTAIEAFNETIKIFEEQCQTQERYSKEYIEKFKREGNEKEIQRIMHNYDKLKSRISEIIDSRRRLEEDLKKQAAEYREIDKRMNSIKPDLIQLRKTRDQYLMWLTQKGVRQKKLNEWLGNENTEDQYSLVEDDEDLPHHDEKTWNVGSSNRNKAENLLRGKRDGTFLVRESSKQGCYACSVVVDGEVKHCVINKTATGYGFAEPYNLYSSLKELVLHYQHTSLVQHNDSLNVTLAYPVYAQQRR
Protocol: PI3Kδ Scintillation Proximity Assay
[γ-^33P]ATP (10 mCi/mL) and Wheat Germ Agglutinin (WGA) YSi SPA Scintillation Beads was purchased from PerkinElmer (Waltham, Mass.). […] PI3Kδ (p110δ/p85α) Recombinant Human Protein was purchased from Eurofins (St Charles, Mo.). ATP, MgCl2, DTT, EDTA, MOPS and CHAPS were purchased from SigmaAldrich (St. Louis, Mo.).
as §1, with “PI3Kδ” for “PI3Kγ”, “ATP, 13 nM PI3Kγ. Reactions were incubated for 120 min and terminated by the addition of 40 μL SPA beads suspended in quench buffer: 163 mM potassium phosphate pH 7.8, 20% glycerol, 25 mM EDTA.” left out, “(PerkinElmer).” for “(Perkin-Elmer).”

[3] = test system: Phosphorylated Ribosomal Protein S6 (RPS6) in THP-1 cells; assay: THP-1 RPS6 ELISA assay; type: cell-based, Human
Protocol: Example A. THP-1 RPS6 ELISA Assay
To measure the Phosphorylated Ribosomal Protein S6 (RPS6) in cell lysates, THP-1 cells (Human Acute Monocytic Leukemia) are purchased from ATCC (Manassas, Va.) and maintained in RPMI with 10% FBS (Gibco/Life Technologies, Carlsbad, Calif.). For the assay, THP-1 cells are serum starved overnight in RPMI, then plated in RPMI (2×10^5 cells/well in 90 μL) into 96-well flat-bottom tissue culture treated plates (Corning, Corning, N.Y.), in the presence or absence of a concentration range of test compounds. Covered plates are incubated for 2 hours at 37° C., 5% CO2 then treated with or without 10 nM MCP-1 (MYBioSource, San Diego, Calif.) for 15 minutes at 37° C., 5% CO2. Plates are centrifuged at 1600 RPM and supernatants are removed. Cells are lysed in Lysis Buffer (Cell Signaling, Danvers, Mass.) with Protease Inhibitor (Calbiochem/EMD, Germany), PMSF (Sigma, St Louis Mo.), HALTS (Thermo Fisher, Rockford, Ill.) for 30 min on wet ice. Cell lysates are frozen at −80° C. before testing. The lysates are tested in the Human/Mouse/Rat Phospho-RPS6 ELISA (R&D Systems, Inc. Minn, Minn.). The plate is measured using a microplate reader (SpectraMax M5—Molecular Devices, LLC Sunnyvale, Calif.) set to 450 nm with a wavelength correction of 540. IC50 determination is performed by fitting the curve of inhibitor percent inhibition versus the log of the inhibitor concentration using the GraphPad Prism 5.0 software.

[4] = THP-1 cells, serum starved, 2 h compound, 10 nM MCP-1 for 15 min, phospho-RPS6 ELISA, read-out: PI3Kγ_THP1_RPS6_ELISA IC50
[5] = Homo sapiens, THP-1, THP-1 cells, serum starved, 2 h compound, 10 nM MCP-1 for 15 min, phospho-RPS6 ELISA, read-out: PI3Kγ_THP1_RPS6_ELISA IC50
[6] = Homo sapiens, THP-1, read-out: PI3Kγ_THP1_RPS6_ELISA IC50 (nM)

Chain of PI3Kγ (p110γ) Recombinant Human Protein (P48736 whole entry): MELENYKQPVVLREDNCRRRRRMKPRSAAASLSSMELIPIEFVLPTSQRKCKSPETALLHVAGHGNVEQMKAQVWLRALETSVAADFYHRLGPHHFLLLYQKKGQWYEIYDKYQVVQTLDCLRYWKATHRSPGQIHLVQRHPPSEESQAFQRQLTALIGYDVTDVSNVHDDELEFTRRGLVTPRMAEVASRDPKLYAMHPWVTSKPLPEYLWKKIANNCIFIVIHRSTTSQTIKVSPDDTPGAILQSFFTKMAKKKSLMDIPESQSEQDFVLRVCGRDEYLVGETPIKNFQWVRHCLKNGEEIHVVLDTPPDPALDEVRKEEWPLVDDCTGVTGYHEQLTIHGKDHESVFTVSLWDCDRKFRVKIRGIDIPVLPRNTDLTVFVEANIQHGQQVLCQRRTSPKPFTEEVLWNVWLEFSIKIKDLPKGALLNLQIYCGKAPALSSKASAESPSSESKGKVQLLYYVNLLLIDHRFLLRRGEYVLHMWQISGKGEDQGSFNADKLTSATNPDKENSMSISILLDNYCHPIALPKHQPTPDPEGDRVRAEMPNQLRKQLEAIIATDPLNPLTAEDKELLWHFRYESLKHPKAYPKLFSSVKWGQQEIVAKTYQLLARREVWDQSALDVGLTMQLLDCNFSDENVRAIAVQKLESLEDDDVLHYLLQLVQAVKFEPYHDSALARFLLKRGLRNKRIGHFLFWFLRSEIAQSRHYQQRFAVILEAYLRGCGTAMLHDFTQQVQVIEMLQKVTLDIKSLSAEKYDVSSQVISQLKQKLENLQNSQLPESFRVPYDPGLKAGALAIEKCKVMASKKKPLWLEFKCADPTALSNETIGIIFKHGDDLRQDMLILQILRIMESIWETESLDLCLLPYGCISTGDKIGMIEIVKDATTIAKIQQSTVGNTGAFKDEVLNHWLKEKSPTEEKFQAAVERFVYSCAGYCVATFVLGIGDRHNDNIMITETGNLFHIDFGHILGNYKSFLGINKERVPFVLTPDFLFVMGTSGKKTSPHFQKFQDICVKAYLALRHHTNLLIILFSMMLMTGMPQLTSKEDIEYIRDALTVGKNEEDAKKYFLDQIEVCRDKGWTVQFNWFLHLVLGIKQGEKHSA

| IC50 [1] | IC50 [2] | IC50 [3, 4] | IC50 [3, 5] | Compound | IC50 [3, 6] |
| --- | --- | --- | --- | --- | --- |
| – | – | – | < 100 nM | Cc1ccc(C(O)(C(N)=O)C(F)(F)F)cc1-c1cnc2c(N)nc(C(C)(C)O)cn12 (single isomer, unassigned) [Example 255, 2-(3-(8-Amino-6-(2-hydroxypropan-2-yl)imidazo[1,2-a]pyrazin-3-yl)-4-methylphenyl)-3,3,3-trifluoro-2-hydroxypropanamide trifluoroacetate salt] | – |
| – | – | – | 500 to 1000 nM | Cc1ccc(C(O)(C(N)=O)C(F)(F)F)cc1-c1cnc2c(N)nc(C(=O)NC34CCC(O)(CC3)C4)cn12 (single isomer, unassigned) [Example 260, 8-Amino-3-(5-(3-amino-1,1,1-trifluoro-2-hydroxy-3-oxopropan-2-yl)-2-methylphenyl)-N-(4-hydroxybicyclo[2.2.1]heptan-1-yl)imidazo[1,2-a]pyrazine-6-carboxamide trifluoroacetate salt] | – |
| < 100 nM | 100 to 500 nM | – | – | Cc1ccc(C(O)(CNC(=O)c2ccccc2)C(F)(F)F)cc1-c1cnc2c(N)nc(C(F)(F)F)cn12 (stereo not drawn) [Example 212, N-(2-(3-(8-amino-6-(trifluoromethyl)imidazo[1,2-a]pyrazin-3-yl)-4-methylphenyl)-3,3,3-trifluoro-2-hydroxypropyl)benzamide trifluoroacetate salt] | – |
| < 100 nM | 100 to 500 nM | – | – | CCNC(=O)c1cn2c(-c3cc(C(O)(CNC(C)=O)C(F)(F)F)ccc3C)cnc2c(N)n1 (stereo not drawn) [Example 221, 3-(5-(3-acetamido-1,1,1-trifluoro-2-hydroxypropan-2-yl)-2-methylphenyl)-8-amino-N-ethylimidazo[1,2-a]pyrazine-6-carboxamide trifluoroacetate] | – |
| 100 to 500 nM | 100 to 500 nM | – | – | Cc1ccc(C(C)(O)C(F)(F)F)cc1-c1cnc2c(N)nc(C(=O)NC34CCN(CC3)C4)cn12 (stereo not drawn) [Example 277, 8-Amino-N-(1-azabicyclo[2.2.1]heptan-4-yl)-3-(2-methyl-5-(1,1,1-trifluoro-2-hydroxypropan-2-yl)phenyl)imidazo[1,2-a]pyrazine-6-carboxamide trifluoroacetate salt] | – |
| < 100 nM | 100 to 500 nM | – | – | Cc1ccc(C(C)(O)C(F)(F)F)cc1-c1cnc2c(N)nc(C(=O)NC34COC(CO)(C3)C4)cn12 (stereo not drawn) [Example 279, 8-Amino-N-(1-(hydroxymethyl)-2-oxabicyclo[2.1.1]hexan-4-yl)-3-(2-methyl-5-(1,1,1-trifluoro-2-hydroxypropan-2-yl)phenyl)imidazo[1,2-a]pyrazine-6-carboxamide trifluoroacetate salt] | – |

Second part, the compound before the results:

| Compound | IC50 [1] | IC50 [2] | IC50 [3, 4] | IC50 [3, 5] | IC50 [3, 6] |
| --- | --- | --- | --- | --- | --- |
| 2-(3-(8-Amino-6-(3-methyl-1H-pyrazol-4-yl)imidazo[1,2-a]pyrazin-3-yl)-4-methylphenyl)-1,1-difluoropropan-2-ol, 1.2TFA [Example 47] | < 100 nM | < 100 nM | < 100 nM | – | – |
| Cc1ccc(C(C)(O)CF)cc1-c1cnc2c(N)nc(C(F)(F)F)cn12 (racemic) [Example 24, 2-(3-(8-Amino-6-(trifluoromethyl)imidazo[1,2-a]pyrazin-3-yl)-4-methylphenyl)-1-fluoropropan-2-ol trifluoroacetate salt] | < 100 nM | 500 to 2000 nM | – | 500 to 1000 nM | – |
| Cc1ccc(C(O)(CO)C(F)(F)F)cc1-c1cnc2c(N)nc(-c3cnn(C)c3)cn12 (racemic) [Example 69, 2-(3-(8-Amino-6-(1-methyl-1H-pyrazol-4-yl)imidazo[1,2-a]pyrazin-3-yl)-4-methylphenyl)-3,3,3-trifluoropropane-1,2-diol trifluoroacetate salt] | – | – | – | – | < 100 nM |
| Cc1ncc(-c2cn3c(-c4cc(C(O)(CO)C(F)(F)F)ccc4C)cnc3c(N)n2)s1 (racemic) [Example 70, 2-(3-(8-Amino-6-(2-methylthiazol-5-yl)imidazo[1,2-a]pyrazin-3-yl)-4-methylphenyl)-3,3,3-trifluoropropane-1,2-diol trifluoroacetate salt] | – | – | – | – | < 100 nM |
| Cc1ccc(C(O)(CO)C(F)(F)F)cc1-c1cnc2c(N)nc(-c3cnco3)cn12 (racemic) [Example 71, 2-(3-(8-Amino-6-(oxazol-5-yl)imidazo[1,2-a]pyrazin-3-yl)-4-methylphenyl)-3,3,3-trifluoropropane-1,2-diol trifluoroacetate salt] | – | – | – | – | < 100 nM |
| Cc1ccc(C(C)(O)C(F)(F)F)cc1-c1cnc2c(N)nc(C(F)(F)F)cn12 (single isomer, unassigned) [Example 5, 2-(3-(8-Amino-6-(trifluoromethyl)imidazo[1,2-a]pyrazin-3-yl)-4-methylphenyl)-1,1,1-trifluoropropan-2-ol] | < 100 nM | 100 to 500 nM | 500 to 1000 nM | – | – |
| Cc1ccc(C(C)(O)C(F)(F)F)cc1-c1cnc2c(N)nc(C(F)(F)F)cn12 (single isomer, unassigned) [Example 6, 2-(3-(8-Amino-6-(trifluoromethyl)imidazo[1,2-a]pyrazin-3-yl)-4-methylphenyl)-1,1,1-trifluoropropan-2-ol] | < 100 nM | 100 to 500 nM | 100 to 500 nM | – | – |
| Cc1ccc(C(C)(O)C(F)(F)F)cc1-c1cnc2c(N)nc(-c3ccnc(CO)c3)cn12 (single isomer, unassigned) [Example 11, 2-(3-(8-amino-6-(2-(hydroxymethyl)pyridin-4-yl)imidazo[1,2-a]pyrazin-3-yl)-4-methylphenyl)-1,1,1-trifluoropropan-2-ol] | < 100 nM | < 100 nM | – | 100 to 500 nM | – |
| Cc1ccc(C(C)(O)C(F)(F)F)cc1-c1cnc2c(N)nc(-c3ccnc(CO)c3)cn12 (single isomer, unassigned) [Example 12, 2-(3-(8-amino-6-(2-(hydroxymethyl)pyridin-4-yl)imidazo[1,2-a]pyrazin-3-yl)-4-methylphenyl)-1,1,1-trifluoropropan-2-ol] | < 100 nM | < 100 nM | < 100 nM | – | – |
| CC(=O)NCC(O)(c1ccc(C)c(-c2cnc3c(N)nc(C(F)(F)F)cn23)c1)C(F)(F)F (stereo not drawn) [Example 211, N-(2-(3-(8-amino-6-(trifluoromethyl)imidazo[1,2-a]pyrazin-3-yl)-4-methylphenyl)-3,3,3-trifluoro-2-hydroxypropyl)acetamide trifluoroacetate] | < 100 nM | 100 to 500 nM | – | – | – |

— patent publication US10738057B2, “Tertiary alcohols as PI3K-γ inhibitors” (Incyte Corporation, priority 2017, dated 2020)
